Laboratory results published in patent publication US20240270751A1, “Pyrazolopyridinone Compounds” (BeiGene Ltd., priority 2021, published 2024).
pIC50: −log10 of the molar value.

Tests used:
DGKζ = DGKζ (Homo sapiens (Human), UniProt Q13574); experiment: Biochemical DGK IC50 assay, DGKζ ADP-Glo assay; settings: 0.5 nM enzyme, 140 μM ATP, 80 μM DAG; read-out: DGKζ ADP-Glo assay IC50
In short: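 Full-length human DGKζ, His-TEV tagged and purified from baculovirus-infected Sf9 cells, assayed by ADP-Glo with DAG/PS lipid micelle substrate prepared in 25 mM HEPES pH 7.0 with octyl glucoside. Final compound concentrations spanned 1.55–10000 nM or 23.3–150000 nM.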

DGKα = DGKα (Homo sapiens (Human), UniProt P23743); experiment: Biochemical DGK IC50 assay, DGKα ADP-Glo assay; settings: 7.5 nM enzyme, 140 μM ATP, 80 μM DAG
Chain of DGKα (P23743 whole entry): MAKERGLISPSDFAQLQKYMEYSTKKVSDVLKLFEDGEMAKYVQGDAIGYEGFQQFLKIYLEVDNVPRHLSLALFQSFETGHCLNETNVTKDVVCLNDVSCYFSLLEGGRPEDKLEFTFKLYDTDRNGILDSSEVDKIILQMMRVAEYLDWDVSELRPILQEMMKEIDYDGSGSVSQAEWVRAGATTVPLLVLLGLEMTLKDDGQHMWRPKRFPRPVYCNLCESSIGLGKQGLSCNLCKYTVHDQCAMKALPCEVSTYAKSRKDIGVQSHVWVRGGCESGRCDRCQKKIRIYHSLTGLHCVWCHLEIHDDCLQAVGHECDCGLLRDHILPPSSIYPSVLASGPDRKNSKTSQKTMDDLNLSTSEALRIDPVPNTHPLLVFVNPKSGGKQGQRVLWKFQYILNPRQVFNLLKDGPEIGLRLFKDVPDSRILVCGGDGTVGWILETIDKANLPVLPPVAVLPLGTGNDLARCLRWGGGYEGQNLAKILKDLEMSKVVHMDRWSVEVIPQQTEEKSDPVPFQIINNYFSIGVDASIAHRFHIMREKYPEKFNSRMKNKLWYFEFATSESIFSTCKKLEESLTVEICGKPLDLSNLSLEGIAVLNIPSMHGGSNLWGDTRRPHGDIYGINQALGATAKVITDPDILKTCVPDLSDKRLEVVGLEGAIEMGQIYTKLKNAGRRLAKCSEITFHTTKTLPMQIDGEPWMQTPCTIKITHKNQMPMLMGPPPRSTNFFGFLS
In short: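 ADP-Glo read-out with full-length DGKα on DAG/PS lipid micelle substrate in 25 mM HEPES pH 7.0, 0.5 mM EDTA, 160 mM octyl β-D-glucopyranoside. Compound final concentrations spanned 1.55˜10000 nM or 23.3˜150000 nM.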

Chain of DGKζ (Q13574 other isoform, or with tags, fused parts or gaps): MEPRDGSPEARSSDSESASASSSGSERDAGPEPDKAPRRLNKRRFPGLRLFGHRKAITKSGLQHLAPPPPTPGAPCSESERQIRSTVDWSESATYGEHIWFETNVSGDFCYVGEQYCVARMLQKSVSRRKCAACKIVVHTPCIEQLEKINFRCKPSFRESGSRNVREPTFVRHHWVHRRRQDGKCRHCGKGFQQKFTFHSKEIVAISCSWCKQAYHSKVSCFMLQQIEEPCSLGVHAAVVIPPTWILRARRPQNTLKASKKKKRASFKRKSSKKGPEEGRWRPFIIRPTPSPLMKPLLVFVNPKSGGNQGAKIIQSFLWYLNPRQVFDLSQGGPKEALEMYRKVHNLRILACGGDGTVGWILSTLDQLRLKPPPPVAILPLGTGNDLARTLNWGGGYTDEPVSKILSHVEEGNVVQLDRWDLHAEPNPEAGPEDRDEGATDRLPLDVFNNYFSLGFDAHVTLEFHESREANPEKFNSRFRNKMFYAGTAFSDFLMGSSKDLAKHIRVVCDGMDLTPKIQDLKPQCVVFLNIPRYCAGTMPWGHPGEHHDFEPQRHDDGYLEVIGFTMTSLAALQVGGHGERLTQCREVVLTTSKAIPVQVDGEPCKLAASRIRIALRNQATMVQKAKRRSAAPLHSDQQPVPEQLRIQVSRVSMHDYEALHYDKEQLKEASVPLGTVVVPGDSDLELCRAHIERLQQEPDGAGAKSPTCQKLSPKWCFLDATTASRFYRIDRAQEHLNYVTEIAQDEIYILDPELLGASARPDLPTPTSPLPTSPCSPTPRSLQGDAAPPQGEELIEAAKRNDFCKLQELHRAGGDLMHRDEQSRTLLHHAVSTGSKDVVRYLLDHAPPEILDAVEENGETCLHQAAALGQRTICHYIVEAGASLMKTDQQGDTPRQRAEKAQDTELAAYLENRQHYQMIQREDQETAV

Compound	pIC50 (DGKζ)	pIC50 (DGKα)
CC[C@H]1CN(C(C)c2ccc(OC(F)(F)F)cc2)[C@H](CC)CN1c1cc(=O)n(C)c2cn(CC#N)nc12 (stereo partly shown) [Compound A122]	6.20	7.98
CC[C@H]1CN(C(C)c2ccc(C(N)=O)cc2)[C@H](CC)CN1c1cc(=O)n(C)c2cn(CC#N)nc12 (single isomer, unassigned) [Compound A120a]	5.53	6.75
CC(c1ccc2nccnc2c1)N1C[C@H](C)N(c2cc(=O)n(C)c3cn(S(C)(=O)=O)nc23)C[C@H]1C (stereo partly shown) [Compound A13]	5.43	5.23
CC[C@H]1CN(C(C)c2nc3cc(C(F)(F)F)ccc3n2CC)[C@H](CC)CN1c1cc(=O)n(C)c2cn(CC#N)nc12 (single isomer, unassigned) [Compound A203a]	5.66	< 5.00
CC[C@H]1CN(C(C)c2ccc3nccnc3c2)[C@H](CC)CN1c1cc(=O)n(C)c2cn(CC#N)nc12 (mixture of isomers) [Compound A28, 2-(7-((2S,5R)-2,5-diethyl-4-(1-(quinoxalin-6-yl)ethyl)piperazin-1-yl)-4-methyl-5-oxo-4,5-dihydro-2H-pyrazolo[4,3-b]pyridin-2-yl)acetonitrile]	8.17	6.51
Cc1cnc2cc([C@H](C)N3C[C@H](C)N(c4cc(=O)n(C)c5cn(CC#N)nc45)C[C@H]3C)ccc2n1 (single isomer, unassigned) [Compound A269b, 2-(7-((2S,5R)-2,5-dimethyl-4-((S)-1-(2-methylquinoxalin-6-yl)ethyl)piperazin-1-yl)-4-methyl-5-oxo-4,5-dihydro-2H-pyrazolo[4,3-b]pyridin-2-yl)acetonitrile, or 2-(7-((2S,5R)-2,5-dimethyl-4-((R)-1-(2-methylquinoxalin-6-yl)ethyl)piperazin-1-yl)-4-methyl-5-oxo-4,5-dihydro-2H-pyrazolo[4,3-b]pyridin-2-yl)acetonitrile]	5.16	< 5.00
CC(c1ccc2c(c1)OC(C)(C)CO2)N1C[C@H](C)N(c2cc(=O)n(C)c3cn(CC#N)nc23)C[C@H]1C (single isomer, unassigned) [Compound A46f]	5.67	4.22
COCc1ccc(C(C)N2C[C@H](C)N(c3cc(=O)n(C)c4cn(CC#N)nc34)C[C@H]2C)cc1 (stereo partly shown) [Compound A31]	5.09	5.92
CC[C@H]1CN(C(C)c2ccc3nccnc3c2)[C@H](C)CN1c1cc(=O)n(C)c2cn(CC#N)nc12 (single isomer, unassigned) [Compound A98a]	7.82	5.97
CC(c1ccc(F)cc1C1(O)COC1)N1C[C@H](C)N(c2cc(=O)n(C)c3cn(CC#N)nc23)C[C@H]1C (stereo partly drawn) [Compound A271, 2-(7-((2S,5R)-4-(1-(4-fluoro-2-(3-hydroxyoxetan-3-yl)phenyl)ethyl)-2,5-dimethylpiperazin-1-yl)-4-methyl-5-oxo-4,5-dihydro-2H-pyrazolo[4,3-b]pyridin-2-yl)acetonitrile]	< 5.00	< 5.00
CCO[C@@H]1CN(c2cc(=O)n(C)c3cn(CC#N)nc23)CC[C@H]1Oc1cccc(C(F)(F)F)c1 [Compound A295, 2-(7-((3R,4R)-3-ethoxy-4-(3-(trifluoromethyl)phenoxy)piperidin-1-yl)-4-methyl-5-oxo-4,5-dihydro-2H-pyrazolo[4,3-b]pyridin-2-yl)acetonitrile]	6.25	5.24
CC[C@H]1CN(C(C)c2ccc3cccnc3n2)[C@H](CC)CN1c1cc(=O)n(C)c2cn(CC#N)nc12 (stereo partly drawn) [Compound A63, 2-(7-((2S,5R)-4-(1-(1,8-naphthyridin-2-yl)ethyl)-2,5-diethylpiperazin-1-yl)-4-methyl-5-oxo-4,5-dihydro-2H-pyrazolo[4,3-b]pyridin-2-yl)acetonitrile]	7.37	7.08
Cc1nc2cc(C(C)N3C[C@H](C)N(c4cc(=O)n(C)c5cn(CC#N)nc45)C[C@H]3C)ccc2o1 (stereo partly shown) [Compound A41]	6.00	< 5.00
CC[C@H]1CN(C(C)c2nc3ccccc3n2CCO)[C@H](CC)CN1c1cc(=O)n(C)c2cn(CC#N)nc12 (stereo partly shown) [Compound A214]	5.46	< 5.00
C[C@@H]1CN(c2cc(=O)n(C)c3c(F)nn(CC#N)c23)[C@@H](C)CN1[C@H](C)c1ccc2nccnc2c1 [Compound A258, 2-(7-((2S,5R)-2,5-dimethyl-4-((R)-1-(quinoxalin-6-yl)ethyl)piperazin-1-yl)-3-fluoro-4-methyl-5-oxo-4,5-dihydro-1H-pyrazolo[4,3-b]pyridin-1-yl)acetonitrile, or 2-(7-((2S,5R)-2,5-dimethyl-4-((S)-1-(quinoxalin-6-yl)ethyl)piperazin-1-yl)-3-fluoro-4-methyl-5-oxo-4,5-dihydro-1H-pyrazolo[4,3-b]pyridin-1-yl)acetonitrile]	< 5.00	< 5.00
CC[C@H]1CN(C(C)c2ccc3nc(OC)cnc3c2)[C@H](CC)CN1c1cc(=O)n(C)c2cn(CC#N)nc12 (single isomer, unassigned) [Compound A281a]	7.11	5.18
CC(c1ccc(F)cc1C(F)(F)F)N1C[C@H](C)N(c2cc(=O)n(C)c3cn(CC#N)nc23)C[C@H]1C (single isomer, unassigned) [Compound A236a]	< 5.00	< 5.00
CC[C@H]1CN(C(C)c2nccn2CC)[C@H](CC)CN1c1cc(=O)n(C)c2cn(CC#N)nc12 (stereo partly shown) [Compound A174]	4.24	3.98

Compound	pIC50 (DGKζ)	pIC50 (DGKα)
COCc1cc(C(C)N2C[C@H](C)N(c3cc(=O)n(C)c4cn(CC#N)nc34)C[C@H]2C)ccc1F (stereo partly shown) [Compound A30]	6.96	5.29
CC(c1ccc2c(n1)OCCO2)N1C[C@H](C)N(c2cc(=O)n(C)c3cn(CC#N)nc23)C[C@H]1C (stereo partly drawn) [Compound A324, 2-(7-((2S,5R)-4-(1-(2,3-dihydro-[1,4]dioxino[2,3-b]pyridin-6-yl)ethyl)-2,5-dimethylpiperazin-1-yl)-4-methyl-5-oxo-4,5-dihydro-2H-pyrazolo[4,3-b]pyridin-2-yl)acetonitrile]	5.40	< 3.82
CC(c1c(Cl)cc(F)cc1Cl)N1C[C@H](C)N(c2cc(=O)n(C)c3cn(CC#N)nc23)C[C@H]1C (stereo partly shown) [Compound A272]	6.39	< 5.00
CC(c1ccc2c(c1)C(F)(F)CCO2)N1C[C@H](C)N(c2cc(=O)n(C)c3cn(CC#N)nc23)C[C@H]1C (stereo partly drawn) [Compound A331, 2-(7-((2S,5R)-4-(1-(4,4-difluorochroman-6-yl)ethyl)-2,5-dimethylpiperazin-1-yl)-4-methyl-5-oxo-4,5-dihydro-2H-pyrazolo[4,3-b]pyridin-2-yl)acetonitrile]	7.34	4.50
CC[C@@H]1CN(c2cc(=O)n(C)c3cn(CC#N)nc23)[C@@H](C)CN1C(C)c1ccc(F)cc1OC (stereo partly drawn) [Compound A137, 2-(7-((2S,5R)-5-ethyl-4-(1-(4-fluoro-2-methoxyphenyl)ethyl)-2-methylpiperazin-1-yl)-4-methyl-5-oxo-4,5-dihydro-2H-pyrazolo[4,3-b]pyridin-2-yl)acetonitrile]	6.97	< 5.00
CC[C@H]1CN(C(C)c2cnc3ccccc3n2)[C@H](CC)CN1c1cc(=O)n(C)c2cn(CC#N)nc12 (single isomer, unassigned) [Compound A155b]	8.12	7.49
CC[C@H]1CN(C(C)c2cncn2CC(F)F)[C@H](CC)CN1c1cc(=O)n(C)c2cn(CC#N)nc12 (stereo partly shown) [Compound A237]	5.87	< 5.00
CCc1cnc2ccc(C(C)N3C[C@H](C)N(c4cc(=O)n(C)c5cn(CC#N)nc45)C[C@H]3C)cc2n1 (stereo partly drawn) [Compound A278, 2-(7-((2S,5R)-4-(1-(3-ethylquinoxalin-6-yl)ethyl)-2,5-dimethylpiperazin-1-yl)-4-methyl-5-oxo-4,5-dihydro-2H-pyrazolo[4,3-b]pyridin-2-yl)acetonitrile]	7.19	4.26
CC[C@@H]1CN(c2cc(=O)n(C)c3cn(CC#N)nc23)[C@@H](CC)CN1Cc1ccc(F)cc1C(F)(F)F [Compound A241]	6.57	5.19
CC[C@H]1CN(C(C)c2ccc(C(F)F)cn2)[C@H](CC)CN1c1cc(=O)n(C)c2cn(CC#N)nc12 (single isomer, unassigned) [Compound A347a]	5.32	6.76
CC(c1ccc(F)cn1)N1C[C@H](C)N(c2cc(=O)n(C)c3cn(CC#N)nc23)C[C@H]1C (stereo partly shown) [Compound A33]	< 5.00	6.80
CC[C@H]1CN(C(C)c2c(F)cc(F)cc2OC)[C@H](CC)CN1c1cc(=O)n(C)c2cn(CC#N)nc12 (single isomer, unassigned) [Compound A201a]	7.37	< 5.00
CC(c1ccccc1)N1C[C@H](C)N(c2cc(=O)n(C)c3cn(CC#N)nc23)C[C@H]1C (stereo partly shown) [Compound A37]	5.27	6.85
CC[C@H]1CN(C(C)c2ccc3nccnc3c2)[C@H](C)CN1c1cc(=O)n(C)c2cn(CC#N)nc12 (single isomer, unassigned) [Compound A98b]	5.75	< 5.00
CC[C@H]1CN(C(C)c2ccc(C(F)(F)F)cc2)[C@H](CC)CN1c1cc(=O)n(C)c2cn(CC#N)nc12 (single isomer, unassigned) [Compound A103a]	6.62	6.39
CC[C@@H]1CN(c2c(C#N)c(=O)[nH]c3cn(CC#N)nc23)[C@@H](C)CN1C(C)c1ccc2nccnc2c1 (single isomer, unassigned) [Compound A200a]	6.99	5.15
CC[C@H]1CN(C(C)c2ccc(F)cn2)[C@H](CC)CN1c1cc(=O)n(C)c2cn(CC#N)nc12 (single isomer, unassigned) [Compound A74b]	5.26	6.73
